One test concerns the target human TASK-3 (Homo sapiens (Human), UniProt Q9NPC2). Briefly: Inhibition of recombinant TASK-3 in stably transfected CHO cells (voltage-sensitive dye, 40 mM KCl depolarization). Type of test: cell-based. Particulars: 40 mM potassium chloride. Here is the method: (§1) B-2. Inhibition of Recombinant TASK-1 and TASK-3 In Vitro
(§2) The investigations on the inhibition of the recombinant TASK-1 and TASK-3 channels were conducted using stably transfected CHO cells. The compounds according to the invention were tested in this case by application of 40 mM potassium chloride in the presence of a voltage-sensitive dye according to the methods described in detail in the following references [Whiteaker et al., Validation of FLIPR membrane potential dye for high-throughput screening of potassium channel modulators, J. Biomol. Screen. 6 (5), 305-312 (2001); Molecular Devices FLIPR Application Note: Measuring membrane potential using the FLIPR® membrane potential assay kit on Fluorometric Imaging Plate Reader (FLIPR®) systems, http://www.moleculardevices.com/reagents-supplies/assay-kits/ion-channels/flipr-membrane-potential-assay-kits]. The activity of the test substances was determined as their ability to inhibit a depolarization induced in the recombinant cells by 40 mM potassium chloride. The concentration which can block half of this depolarization is referred to as IC50.

The target of a further test is human TASK-1 (Homo sapiens (Human), UniProt O14649). Briefly: Inhibition of recombinant TASK-1 in stably transfected CHO cells (voltage-sensitive dye, 40 mM KCl depolarization). In kind it is cell-based. Particulars: 40 mM potassium chloride. As for the experimental part: as §1, §2
Chain of human TASK-1 (O14649 whole entry): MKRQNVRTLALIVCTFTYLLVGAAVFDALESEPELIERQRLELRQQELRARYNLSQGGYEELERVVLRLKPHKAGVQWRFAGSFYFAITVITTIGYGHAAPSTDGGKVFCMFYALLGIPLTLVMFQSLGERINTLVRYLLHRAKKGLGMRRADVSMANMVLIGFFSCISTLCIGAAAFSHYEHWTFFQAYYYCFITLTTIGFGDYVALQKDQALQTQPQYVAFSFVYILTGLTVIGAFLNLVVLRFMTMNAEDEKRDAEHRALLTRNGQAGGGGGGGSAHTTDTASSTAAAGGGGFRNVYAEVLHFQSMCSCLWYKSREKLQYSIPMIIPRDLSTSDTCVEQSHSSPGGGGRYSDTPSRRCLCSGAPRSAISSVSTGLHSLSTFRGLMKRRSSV

Chain of human TASK-3 (Q9NPC2 whole entry): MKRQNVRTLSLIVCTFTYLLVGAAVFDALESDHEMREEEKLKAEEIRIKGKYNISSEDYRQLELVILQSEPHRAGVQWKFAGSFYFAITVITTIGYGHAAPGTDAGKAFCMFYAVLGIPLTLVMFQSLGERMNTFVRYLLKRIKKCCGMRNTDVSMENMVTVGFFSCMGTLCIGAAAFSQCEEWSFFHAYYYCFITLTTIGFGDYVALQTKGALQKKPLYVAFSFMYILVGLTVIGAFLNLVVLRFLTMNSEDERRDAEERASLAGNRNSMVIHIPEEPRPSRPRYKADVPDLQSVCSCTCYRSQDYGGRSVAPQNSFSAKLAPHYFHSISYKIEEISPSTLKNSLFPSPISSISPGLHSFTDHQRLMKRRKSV

The term IC50 denotes the concentration that gives 50% inhibition. For the compound `COc1ccc(C)c(C(=O)N2CC3CN(Cc4c(-c5ccc(Cl)cc5)nc5ccccn45)CC3C2)n1` (stereo not shown) [Example 49], the values for the IC50 on human TASK-3 and on human TASK-1 were 4.6 nM and 94 nM, respectively.
In the case of `O=C(OCCF)N1CC2CN(Cc3c(-c4ccc(Br)cc4)nc4ccccn34)CC2C1` (stereo not shown) [Example 37], the IC50 at human TASK-3 was determined as 1800 nM; at human TASK-1, 600 nM.
Regarding `Cc1ccc(F)cc1C(=O)N1CC2CN(Cc3c(-c4ccc(Cl)cc4)nc4ccccn34)CC2C1` (stereo not shown) [Example 21], the IC50 on human TASK-3 was 230 nM; on human TASK-1, 1250 nM.
Take `O=C(c1ccccc1F)N1CC2CN(Cc3c(-c4ccc(Cl)cc4)nc4ccccn34)CC2C1` (stereo not shown) [Example 14]: the IC50 on human TASK-3 amounted to 3400 nM; at human TASK-1, 1060 nM.
Turning to `COc1ccc(F)cc1C(=O)N1CC2CN(Cc3c(-c4ccc(Br)cc4)nc4ccccn34)CC2C1` (stereo not shown) [Example 12], the results for the IC50 on human TASK-3 and at human TASK-1 were 960 nM and 1200 nM, respectively.
Take `O=C(Nc1cc(C(F)(F)F)ccc1Cl)N1CC2CN(Cc3c(-c4ccc(Br)cc4)nc4ccccn34)CC2C1` (stereo not shown) [Example 44]: the IC50 turned out to be 2000 nM on human TASK-3 and 700 nM on human TASK-1.
With `CN(C(=O)N1CC2CN(Cc3c(-c4ccc(Br)cc4)nc4ccccn34)CC2C1)c1ccccc1` (stereo not shown) [Example 29, 5-{[2-(4-Bromophenyl)imidazo[1,2-a]pyridin-3-yl]methyl}-N-methyl-N-phenylhexahydropyrrolo[3,4-c]pyrrole-2(1H)-carboxamide], the IC50 worked out at 2100 nM at human TASK-3 and 920 nM on human TASK-1.
As for `O=C(Oc1cccc(C(F)(F)F)c1)N1CC2CN(Cc3c(-c4ccc(Br)cc4)nc4ccccn34)CC2C1` (stereo not shown) [Example 36], the IC50 at human TASK-3 is 450 nM; on human TASK-1, 180 nM.
Consider `CC(C)OC(=O)N1CC2CN(Cc3c(-c4ccc(Br)cc4)nc4ccccn34)CC2C1` (stereo not shown) [Example 35], for which the IC50 at human TASK-3 is 1700 nM; on human TASK-1, 700 nM.
For `CC(NC(=O)N1CC2CN(Cc3c(-c4ccc(Br)cc4)nc4ccccn34)CC2C1)c1ccccc1` (stereo not shown) [Example 46], in that order: 2200 nM and 460 nM.
In the case of `COc1ccc(F)c(C(=O)N2CC3CN(Cc4c(-c5ccc(Cl)cc5)nc5ccccn45)CC3C2)n1` (stereo not shown) [Example 50], the figures for the IC50 on human TASK-3 and on human TASK-1 were 110 nM and 1100 nM, respectively.
Consider `O=C(Nc1ccc(F)cc1F)N1CC2CN(Cc3c(-c4ccc(Br)cc4)nc4ccccn34)CC2C1` (stereo not shown) [Example 38, 5-{[2-(4-Bromophenyl)imidazo[1,2-a]pyridin-3-yl]methyl}-N-(2,4-difluorophenyl)hexahydropyrrolo[3,4-c]pyrrole-2(1H)-carboxamide], for which the IC50 was 1900 nM at human TASK-3 and 1500 nM on human TASK-1.
Turning to `O=C(c1ccccc1)N1CC2CN(Cc3c(-c4ccc(Cl)cc4)nc4ccc(-c5ccccc5)cn34)CC2C1` (stereo not shown) [Example 160 in WO 2014/187922, reference compound], the IC50 at human TASK-3 turned out to be 2400 nM; at human TASK-1, 15000 nM.
For `O=C(c1cc(F)ccc1Cl)N1CC2CN(Cc3c(-c4ccc(Cl)cc4)nc4ccccn34)CC2C1` (stereo not shown) [Example 15], in that order: 2900 nM and 1000 nM.
For the compound `O=C(OC1CCCC1)N1CC2CN(Cc3c(-c4ccc(Br)cc4)nc4ccccn34)CC2C1` (stereo not shown) [Example 34], the half-inhibitory concentration (IC50) at human TASK-3 amounted to 3300 nM; on human TASK-1, 500 nM.
In the case of `O=C(c1ccccc1F)N1CC2CN(Cc3c(-c4ccc(Br)cc4)nc4ccccn34)CC2C1` (stereo not shown) [Example 6], the IC50 on human TASK-3 was found to be 1300 nM; on human TASK-1 it was 683 nM.
Consider `O=C(c1cc(F)ccc1Cl)N1CC2CN(Cc3c(-c4ccc(Br)cc4)nc4ccccn34)CC2C1` (stereo not shown) [Example 7], for which the IC50 on human TASK-3 stood at 4300 nM; at human TASK-1, 787 nM.
For `O=C(C1CCC1)N1CC2CN(Cc3c(-c4ccc(Br)cc4)nc4ccccn34)CC2C1` (stereo not shown) [Example 9], the IC50 amounted to 660 nM on human TASK-3 and 749 nM on human TASK-1.
Consider `CC(C)c1ccc(-c2nc3ccccn3c2CN2CC3CN(C(=O)c4ccccc4F)CC3C2)cc1` (stereo not shown) [Example 26], for which the IC50 at human TASK-3 was 310 nM; at human TASK-1, 220 nM.
For `CC(C)COC(=O)N1CC2CN(Cc3c(-c4ccc(Br)cc4)nc4ccccn34)CC2C1` (stereo not shown) [Example 32], in that order: 1200 nM and 1100 nM.
`CC(C)c1ccc(-c2nc3ccccn3c2CN2CC3CN(C(=O)C4CCCC4)CC3C2)cc1` (stereo not shown) [Example 28]: the IC50 on human TASK-3 is 190 nM; at human TASK-1, 300 nM.
For `O=C(C1CCCCC1)N1CC2CN(Cc3c(-c4ccc(Br)cc4)nc4ccccn34)CC2C1` (stereo not shown) [Example 8], in that order: 810 nM and 1360 nM.
Consider `COc1ccc(F)cc1C(=O)N1CC2CN(Cc3c(-c4ccc(Cl)cc4)nc4ccccn34)CC2C1` (stereo not shown) [Example 19], for which the 50% inhibitory concentration (IC50) on human TASK-3 stood at 1500 nM; on human TASK-1, 1250 nM.
`O=C(c1cccc(C(F)(F)F)c1)N1CC2CN(Cc3c(-c4ccc(Cl)cc4)nc4ccccn34)CC2C1` (stereo not shown) [Example 23]: the 50% inhibitory concentration (IC50) at human TASK-3 came to 100 nM; on human TASK-1, 728 nM.
In the case of `CC(C)c1ccc(-c2nc3ccccn3c2CN2CC3CN(C(=O)OC(C)(C)C)CC3C2)cc1` (stereo not shown) [Example 3], the IC50 at human TASK-3 was determined as 7400 nM; on human TASK-1 it was 2500 nM.
Take `COc1ccc(Cl)c(C(=O)N2CC3CN(Cc4c(-c5ccc(Cl)cc5)nc5ccccn45)CC3C2)n1` (stereo not shown) [Example 51]: the IC50 on human TASK-3 amounted to 80 nM; at human TASK-1, 1400 nM.
`Cc1ccccc1C(=O)N1CC2CN(Cc3c(-c4ccc(Br)cc4)nc4ccccn34)CC2C1` (stereo not shown) [Example 13]: the figures for the IC50 at human TASK-3 and at human TASK-1 were 1300 nM and 712 nM, respectively.
The corresponding values for `COc1ccccc1C(=O)N1CC2CN(Cc3c(-c4ccc(Cl)cc4)nc4ccccn34)CC2C1` (stereo not shown) [Example 18] are 4900 nM and 1680 nM.
Regarding `COc1cccc(C(=O)N2CC3CN(Cc4c(-c5ccc(Br)cc5)nc5ccccn45)CC3C2)n1` (stereo not shown) [Example 24], the values for the IC50 on human TASK-3 and at human TASK-1 were 800 nM and 330 nM, respectively.
As for `O=C(c1cccc(OC(F)(F)F)c1)N1CC2CN(Cc3c(-c4ccc(Cl)cc4)nc4ccccn34)CC2C1` (stereo not shown) [Example 22], the IC50 at human TASK-3 was 320 nM; at human TASK-1, 1460 nM.
The corresponding values for `O=C(Nc1ccccc1F)N1CC2CN(Cc3c(-c4ccc(Br)cc4)nc4ccccn34)CC2C1` (stereo not shown) [Example 41] are 2900 nM and 580 nM.
On to `CC(C)(C)OC(=O)N1CC2CN(Cc3c(-c4ccc(Cl)cc4)nc4ccccn34)CC2C1` (stereo not shown) [Example 1, tert-butyl 5-{[2-(4-chlorophenyl)imidazo [1,2-a]pyridin-3-yl]methyl}hexahydropyrrolo[3,4-c]pyrrole-2(1H)-carboxylate], for which the IC50 amounted to 6100 nM at human TASK-3 and 2410 nM on human TASK-1.
Take `O=C(Nc1ccc(Cl)c(C(F)(F)F)c1)N1CC2CN(Cc3c(-c4ccc(Br)cc4)nc4ccccn34)CC2C1` (stereo not shown) [Example 43]: the IC50 on human TASK-3 was 2000 nM; at human TASK-1, 1700 nM.
The corresponding values for `CC(C)(C)OC(=O)N1CC2CN(Cc3c(-c4ccc(Br)cc4)nc4ccccn34)CC2C1` (stereo not shown) [Example 2] are 5400 nM and 1730 nM.
Take `O=C(NC1CCCCC1)N1CC2CN(Cc3c(-c4ccc(Br)cc4)nc4ccccn34)CC2C1` (stereo not shown) [Example 45]: the IC50 on human TASK-3 was 5800 nM; on human TASK-1, 2300 nM.
Take `O=C(C1CCCC1)N1CC2CN(Cc3c(-c4ccc(Br)cc4)nc4ccccn34)CC2C1` (stereo not shown) [Example 5, [5-{[2-(4-Bromophenyl)imidazo[1,2-a]pyridin-3-yl]methyl}hexahydropyrrolo[3,4-c]pyrrol-2(1H)-yl](cyclopentyl)methanone]: the IC50 on human TASK-3 stood at 1600 nM; on human TASK-1, 1130 nM.
On to `COc1ccccc1C(=O)N1CC2CN(Cc3c(-c4ccc(Br)cc4)nc4ccccn34)CC2C1` (stereo not shown) [Example 11], for which the IC50 at human TASK-3 is 2500 nM; at human TASK-1 it was 1210 nM.
For `COc1ccc(F)c(C(=O)N2CC3CN(Cc4c(-c5ccc(C(C)C)cc5)nc5ccccn45)CC3C2)n1` (stereo not shown) [Example 48], in that order: 79 nM and 78 nM.
Take `O=C(N1CC2CN(Cc3c(-c4ccc(Br)cc4)nc4ccccn34)CC2C1)N1CCCc2ccccc21` (stereo not shown) [Example 30]: the IC50 at human TASK-3 came out at 1200 nM; at human TASK-1 it was 480 nM.
On to `O=C(OCc1ccccc1)N1CC2CN(Cc3c(-c4ccc(Br)cc4)nc4ccccn34)CC2C1` (stereo not shown) [Example 33], for which the IC50 on human TASK-3 amounted to 4400 nM; at human TASK-1 it was 460 nM.
On to `O=C(Nc1ccc(F)cc1)N1CC2CN(Cc3c(-c4ccc(Br)cc4)nc4ccccn34)CC2C1` (stereo not shown) [Example 47], for which the figures for the IC50 on human TASK-3 and at human TASK-1 were 240 nM and 1000 nM, respectively.
In the case of `Cc1ccccc1C(=O)N1CC2CN(Cc3c(-c4ccc(Cl)cc4)nc4ccccn34)CC2C1` (stereo not shown) [Example 20], the IC50 at human TASK-3 worked out at 2500 nM; at human TASK-1, 1020 nM.
With `COc1cccc(C(=O)N2CC3CN(Cc4c(-c5ccc(C(C)C)cc5)nc5ccccn45)CC3C2)c1` (stereo not shown) [Example 27], the IC50 at human TASK-3 and on human TASK-1 was 170 nM throughout.
Take `O=C(C1CCCCC1)N1CC2CN(Cc3c(-c4ccc(Cl)cc4)nc4ccccn34)CC2C1` (stereo not shown) [Example 16]: the IC50 at human TASK-3 was 1100 nM; on human TASK-1 it was 1940 nM.

The values above are taken from patent US10414765B2, “Substituted perhydropyrrolo[3,4-c]pyrrole derivatives and the use of same” (BAYER PHARMA AKTIENGESELLSCHAFT, priority 2015, dated 2019).
